Like-named read-outs stand apart in the source and are kept apart here.

The record followed here is PMC12858467, “In vitro toxicokinetics and metabolic profiling of methoxycathinones and methylthiocathinones using human liver systems and hyphenated mass spectrometry” (Archives of Toxicology, 2025).

The test system of data set [1] is pooled human liver S9 fraction (pHLS9) and HepaRG cells. Put plainly: In vitro metabolism by pHLS9 and HepaRG cells (LC-HRMS/MS metabolite identification). Type of data set: in vitro ADME. Particulars: 25 µM substrate.
The nature of data set [2]: In vitro plasma protein binding (ultrafiltration, Centrifree). Particulars: human, pooled human blood plasma, 30 min, 37 °C, ultrafiltration. The format is in vitro ADME. How it is done:
(§1) PPB was investigated according to a previous study with minor modifications (Kroesen et al. [2025]). Fresh and pooled human blood plasma (450 µL) was spiked with 50 µL of a 5 µM methanolic solution of 4MeO-NE-BP, 4MeO-αP-BP, 4MeO-αP-VP, 4MeS-NE-BP, 4MeS-αP-BP, or 4MeS-αMor-PrP. The mixture was incubated for 30 min at 37 °C and with gentle shaking at 200 rpm. […] The Centrifree devices were centrifuged for 35 min at 1600 × g to obtain 100 µL of the ultrafiltrate (UF). […] Experiments were performed in quadruplicate. Fraction unbound (fu) and PPB were determined by comparing the area ratios of the compound and trimipramine-d3 as an internal standard in the UF and GA using the following equations:1 fu=peak area ratiocompoundUF/ISUF/peak area ratiocompoundGA/ISGA 2 PPB[\%]=1-fu∗100.

Data set [3] has as its system plasma proteins (pooled human blood plasma). Described as above. Type of data set: in vitro ADME. Particulars: for PPB, %: 30 min, 37 °C, ultrafiltration. Here is the method: as §1
The next data set deals with T1, CYP2D6 (Homo sapiens, UniProt P10635).
T1 construct: purchased Discovery Life Sciences (Huntsville, LA, USA); host or cells: baculovirus-infected insect cells (microsomes, Supersomes)
Put plainly: Monooxygenases activity screening, CYP2D6. The format is in vitro ADME. Particulars: 25 µM, 30 min, 37 °C. Here is the method: For incubations with CYP2A6 or CYP2C9, phosphate buffer was replaced with 90 mM Tris buffer, according to the manufacturer’s guideline. […] All incubations were done in duplicate and concentrations were fixed. Verapamil (25 µM) was incubated as a positive control.

For another data set, the system named is HepaRG cells. Put plainly: Incubations using HepaRG cells. Particulars: 25 µM parent, 24 h.
[4] abbreviates: read-out: fu (unbound fraction).

T1 sequence (P10635 whole entry): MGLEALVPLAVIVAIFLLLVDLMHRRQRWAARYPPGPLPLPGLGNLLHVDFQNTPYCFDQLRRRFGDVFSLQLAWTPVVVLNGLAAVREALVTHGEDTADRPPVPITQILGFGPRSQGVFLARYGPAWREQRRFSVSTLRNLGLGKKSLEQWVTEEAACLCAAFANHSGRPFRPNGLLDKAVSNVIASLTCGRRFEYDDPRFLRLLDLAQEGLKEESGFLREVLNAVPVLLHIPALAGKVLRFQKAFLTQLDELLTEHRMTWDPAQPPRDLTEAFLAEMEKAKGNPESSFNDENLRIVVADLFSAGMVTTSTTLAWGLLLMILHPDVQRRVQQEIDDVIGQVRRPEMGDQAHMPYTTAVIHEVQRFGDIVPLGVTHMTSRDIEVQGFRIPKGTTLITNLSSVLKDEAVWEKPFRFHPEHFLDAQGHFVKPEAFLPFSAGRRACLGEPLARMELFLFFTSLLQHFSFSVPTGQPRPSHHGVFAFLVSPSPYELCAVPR

For the compound `CCC(C(=O)c1ccc(OC)cc1)N1CCCC1` (stereo not drawn) [Compound 4MeO-αP-BP, 4’-methoxy-α-pyrrolidinobutyrophenone], in data set [1], the “metabolic reactions (metabolite IDs) identified” value (from here on “metabolic reactions”) is “hydroxylation (MO2.1), O-demethylation (MO2.2), N-oxidation (MO2.3), lactam formation (MO2.4), and hydroxylation + N-oxidation (MO2.5)”; the “number of metabolites tentatively identified” value (from here on “number”) is given as 5. The fraction unbound at 30 min, 0.5 µM in data set [2] (read-out: PPB, % (converted)) is greater than 0.5. Further, the fraction unbound at 30 min, 0.5 µM in data set [2] (setting [4]) is 0.54. Moreover, in data set [3], the “Plasma protein binding, class in words” value is “low” and the “PPB, %” value was found to be 46%.

`CCNC(CC)C(=O)c1ccc(SC)cc1` (stereo not shown) [Compound 4MeS-NE-BP, 4’-methylthio-N-ethylbutyrophenone]: the “S-demethylation, only mediated by one CYP isoform” value at CYP2D6 is recorded as “CYP2D6”. Further, in data set [1], the “metabolic reactions” value was “S-demethylation (MT1.1), hydroxylation (MT1.2), N-dealkylation (MT1.3), hydroxylamine formation (MT1.4), hydroxylation + oxidation (MT1.5), N-dealkylation + S-demethylation (MT1.6), and hydroxylamine formation + hydroxylation (MT1.7)”; the “number” value is 7. The fraction unbound at 30 min, 0.5 µM in data set [2] (read-out: PPB, % (converted)) was 0.13. For the same compound, the fraction unbound at 30 min, 0.5 µM in data set [2] (setting [4]) stood at 0.13.

As for `CSc1ccc(C(=O)C(C)N2CCOCC2)cc1` (stereo not shown) [4MeS-αMor-PrP, 4’-methylthio-2-morpholinopropiophenone], the “metabolic reactions” value in data set [1] is “S-demethylation (MT3.1), hydroxylation (MT3.2), N-oxidation (MT3.3), oxo reduction (MT3.4), lactam formation (MT3.6), N,O-bis-dealkylation (MT3.7), dehydrogenation (MT3.9), and combinations thereof”. Moreover, the “number” value in data set [1] turned out to be 10. Further, the fraction unbound at 30 min, 0.5 µM in data set [2] (read-out: PPB, % (converted)) is 0.14; in data set [2] (setting [4]) it was 0.14.

Regarding `CCC(C(=O)c1ccc(SC)cc1)N1CCCC1` (stereo not drawn) [Compound 4MeS-αP-BP, 4’-methylthio-α-pyrrolidinobutyrophenone], the “S-demethylation, only mediated by one CYP isoform” value on CYP2D6 is “CYP2D6”. In data set [1], the “metabolic reactions” value was “S-demethylation (MT2.1), hydroxylation (MT2.2), N-oxidation (MT2.3), lactam formation (MT2.4), N,N-bis-dealkylation (MT2.5), dihydroxylation (MT2.6), S-demethylation + hydroxylation (MT2.7), and N-oxidation + hydroxylation (MT2.8)”; the “number” value came out at 8. Besides, the fraction unbound at 30 min, 0.5 µM in data set [2] (read-out: PPB, % (converted)) was 0.16. Moreover, the fraction unbound at 30 min, 0.5 µM in data set [2] (setting [4]) was 0.16.

Turning to `CCCC(C(=O)c1ccc(OS(=O)(=O)O)cc1)N1CCCC1` (stereo not shown) [MO3.9], the “metabolite detection in HepaRG incubations” value in the data set with HepaRG cells was “observed in HepaRG incubations”.

For the compound `CCC(N)C(=O)c1ccc(SC)cc1` (stereo not shown) [MT2.5], the “metabolite detection in HepaRG incubations” value in the data set with HepaRG cells is “only detected in HepaRG incubations”.

Consider `CCNC(CC)C(=O)c1ccc(OC)cc1` (stereo not shown) [Compound 4MeO-NE-BP, 4’-methoxy-N-ethylbutyrophenone], for which, in data set [1], the “metabolic reactions” value was “O-demethylation (MO1.1), hydroxylation (MO1.2), N-dealkylation (MO1.3), hydroxylamine formation (MO1.4), and O-demethylation + sulfation (MO1.5)”; the “number” value is 5. Moreover, in data set [2] (read-out: PPB, % (converted)), the fraction unbound at 30 min, 0.5 µM is greater than 0.5. Also, the fraction unbound at 30 min, 0.5 µM in data set [2] (setting [4]) is 0.61. Further, in data set [3], the “Plasma protein binding, class in words” value is “low” and the “PPB, %” value came to 39%.
